From patent publication US7396851B2, “Heterocyclic and benzoheterocyclic polyamides structurally related to the natural antibiotic distamycin A for the treatment of β-thalassaemia” (priority 2001, dated 2008)
Counter-ions that a name gives are not always drawn.

Assays:
[1] = tested on: human cell line K562; experiment: Erythroid differentiation of K562 cells (benzidine-positive cells); format: cell-based; settings: mean±SD of five independent experiments
Description: The activity of the distamycin analogues described previously as inducers of erythroid cell differentiation was evaluated by studying the erythroid differentiation induced in human cell cultures.
The biological activity was evaluated by examining the capacity of those compounds to induce erythroid differentiation in the human cell line K562, which is capable of undergoing erythroid differentiation by expressing the genes for γ-globin if subjected to treatment with modifiers of the biological response that are suitable for the purpose (19-24). The level of differentiation was evaluated by analysing the positive reaction of the cells to benzidine (23). Some of the data obtained are given in Table 1, which represents the results of five independent experiments (mean±SD).

[2] = tested on: mRNA for γ-globin; experiment: Expression of genes coding for γ-globins by RT-PCR / Northern blotting in K562 cells; format: cell-based, human; settings: concentration 50 nM, quantitative RT-PCR, untreated control = 1
Description: The expression of genes coding for γ-globins was evaluated by RT-PCR (reverse transcriptase PCR) and Northern blotting (25). […] The evaluations were carried out after 6 days' induction with the indicated molecules.
The Technique used is that of quantitative RT-PCR (28, 29) using the following oligonucleotide primers and probe: γ-globin forward primer, 5′-TGGCAAGAAGGTGCTGACTTC-3′; γ-globin reverse primer, 5′-TCA CTC AGC TGG GCA AAG G-3′; probe γ-globin, 5′-FAM-TGGGAGATGCCATAAAGCACCTGG-TAMRA-3′(FAM=6-carboxy fluorescein, TAMRA=6-carboxy-N,N,N′,N′-tetramethylrhodamine).

| SMILES | erythroid differentiation (%) = percentage of K562 cells that react positively to benzidine ([1]; concentration 50 nM) | further results |
| --- | --- | --- |
| Cl.Cn1cc(NC(=O)c2cc(NC(=O)c3cc(NC(=O)c4ccc(N(CCCl)CCCl)cc4)cn3C)cn2C)cc1C(=O)NCCC(=N)N [Compound 1, 3-(1-methyl-4-(1-methyl-4-(1-methyl-4-(4-(N,N-bis(2-chloroethyl)amino)benzenecarboxamido)pyrrole-2-carboxamido)pyrrole-2-carboxamido)pyrrole-2-carboxamido)propionamidine hydrochloride] | 65.5 ± 8.8% | mRNA for γ-globin, increase compared with untreated control K562 cells [2]: 11.5 ± 2.5 |
| Cl.Cn1cc(NC(=O)c2cc(NC(=O)c3nc(NC(=O)c4ccc(N(CCCl)CCCl)cc4)cn3C)cn2C)cc1C(=O)NCCC(=N)N [Compound 2, 3-(1-methyl-4-(1-methyl-4-(1-methyl-4-(4-(N,N-bis(2-chloroethyl)amino)benzenecarboxamido)imidazole-2-carboxamido)pyrrole-2-carboxamido)pyrrole-2-carboxamido)propionamidine hydrochloride] | 85.2 ± 12.8% | – |
| Cn1cc(NC(=O)c2cc(NC(=O)c3cc(NC(=O)c4cc5cc(N(CCCl)CCCl)ccc5o4)cn3C)cn2C)cc1C(=O)NCCC(=N)N [Compound 3, 3-(1-methyl-4-(1-methyl-4-(1-methyl-4-(5-N,N-bis(2-chloroethyl)aminobenzofurane-2-carboxamido)pyrrole-2-carboxamido)pyrrole-2-carboxamido)pyrrole-2-carboxamido)propionamidine hydrochloride] | – | erythroid differentiation (%) = percentage of K562 cells that react positively to benzidine ([1]; concentration 100 nM): 72.4 ± 10.2% |
| CN(C)CCCNC(=O)c1cc2cc(NC(=O)c3cc4cc(NC(=O)c5ccc(N(CCCl)CCCl)cc5)ccc4[nH]3)ccc2o1 [Compound 4, N-(3′-dimethylaminopropyl)-5-(5-(4-(bis(2-chloroethyl)amino)benzoylamino)-1H-indol-2-carboxamido)benzofurane-2-carboxamido hydrochloride] | – | erythroid differentiation (%) = percentage of K562 cells that react positively to benzidine ([1]; concentration 500 nM): 30 ± 3.8% |
| Cn1cc(NC(=O)c2cc(NC(=O)c3cc(N(CC4CO4)CC4CO4)cn3C)cn2C)cc1C(=O)NCC/C(N)=N/C#N (stereo not drawn) [Compound 5, 3-(1-methyl-4-(1-methyl-4-(1-methyl-4-(N,N-bis(2-oxiranylmethyl)amino)pyrrole-2-carboxamido)pyrrole-2-carboxamido)pyrrole-2-carboxamido)cyanopropionamidine hydrochloride] | 77 ± 10.1% | – |
